Assay results from patent publication US20080279936A1, “Estradiol metabolites for reduction of endothelin production” (The University of Pittsburgh, priority 2001, published 2008).
Read-outs that look alike come from different tables or passages of the source.

Tests used:
[1] = tested on: endothelin-1 (ET-1) synthesis in porcine coronary artery endothelial cells (PCAECs); assay: Stimulated (FCS, angiotensin II, thrombin, TNFα) ET-1 release into the medium by PCAECs (ELISA); type: cell-based; set-up: induction of ET-1 secretion (percentage increase vs vehicle-treated controls): dose or concentration left out as unconfirmed; conditions: for inhibition of FCS-induced ET-1 secretion / inhibition of TNFα-induced ET-1 secretion / inhibition of angiotensin II-induced ET-1 secretion / inhibition of thrombin-induced ET-1 secretion / inhibition at 0.001 µM: 1 nmol/L; for reversal by ICI182780 of the compound's inhibitory effect on FCS-stimulated ET-1 secretion: ICI182780 50 μmol/L; for effectiveness in inhibiting basal and stimulated ET-1 secretion compared with estradiol: order of potency 2-methoxyestradiol>2-hydroxyestradiol>estradiol; for induction of ET-1 secretion (percentage increase vs vehicle-treated controls): stimulus alone; for effect on FCS-induced ET-1 synthesis: 10 nmol/L; for inhibition at 0.001 µM: Sus scrofa, Endothelial cell
Source text: (§1) Hearts from female pigs were obtained from a local slaughter house and placed in ice-cold oxygenated DMEM (Gibco, Rockville, Md. now Invitrogen, Carlsbad Calif., hereinafter “Gibco”) containing antibiotics (Gibco). The epicardial coronary arteries were isolated, and the fat and connective tissue were removed. Endothelial cells were isolated by collagenase/dispase digestion (Ohbayashi, A., et al., Biochem. Brophys. Res. Commun. 202:504 (1994), the disclosure of which is incorporated herein be reference (“Ohbayashi, et al.”)). The isolated cells were washed in DMEM/F12 medium (Gibco) supplemented with 10% fetal calf serum (“FCS”) (HyClone Laboratories, Logan, Utah) and endothelial cell growth supplement (Clonetics, Walkersville, Md.), and cells were grown to confluence under standard tissue culture conditions. The purity of the cultures, which was characterized by immunostaining with factor VIII antigen (Sigma, St. Louis, Mo.) and by assaying the preferential uptake of the fluorescent probe Dil-acetylated low density lipoprotein (Biomedical Technologies, Inc., Stoughton, Mass.), (Ohbayashi, et al.) was 98%. Cells were passaged by trypsinization, and cells in second and third passage were used for all experiments in this example.
(§2) To study the effects of estradiol and its metabolites on ET-1 synthesis in porcine coronary artery endothelial cells (“PCAECs”) (Gibco), confluent monolayers of PCAECs were washed twice with HBSS (Gibco) and treated with DMEM/F12 (gibco) supplemented with 0.4% bovine serum albumin (BSA) containing or lacking 0.001 to 1 μmol/L of estradiol, 2-hydroxyestradiol, or 2-methoxyestradiol (Steraloids, Newport, R.I.). […] The supernatants were collected for ET-1 analysis, and the samples were frozen at −70° C. until analyzed. ET-1 levels were measured with the BIOTRAK™ (Amersham Pharmacia Biotech Europe Gmbh, Dubendorf, Switzerland) high-sensitivity endothelin-1 human ELISA system.
Cells were also treated as above in the presence and absence of the estradiol receptor (“ER”) antagonist, ICI182780 (50 μmol/L; Tocris Cookson Ltd, Ballwin, Mo.). To analyze whether the inhibitory effects of estradiol were mediated by means of ER-β, the effects of genistein (0.001 to 10 μmol/L) (Sigma) were investigated. To evaluate whether the effects of estradiol were mimicked by various clinically used estrogens, the cells were treated as above, in the presence and absence of ICI182780, with 10 nmol/L of estradiol valerate, estradiol cypionate, estradiol benzoate, 17α-estradiol, estrone, estriol or estrone sulfate (all from Sigma), and the ET-1 synthesis in response to FCS (2.5%) was analyzed.

[2] = tested on: mitogen-activated protein kinase (MAPK) activity in PCAECs; assay: FCS-induced MAPK activity in PCAECs; type: cell-based, porcine
Source text: Hearts from female pigs were obtained from a local slaughter house and placed in ice-cold oxygenated DMEM (Gibco, Rockville, Md. now Invitrogen, Carlsbad Calif., hereinafter “Gibco”) containing antibiotics (Gibco). The epicardial coronary arteries were isolated, and the fat and connective tissue were removed. Endothelial cells were isolated by collagenase/dispase digestion (Ohbayashi, A., et al., Biochem. Brophys. Res. Commun. 202:504 (1994), the disclosure of which is incorporated herein be reference (“Ohbayashi, et al.”)). […] The purity of the cultures, which was characterized by immunostaining with factor VIII antigen (Sigma, St. Louis, Mo.) and by assaying the preferential uptake of the fluorescent probe Dil-acetylated low density lipoprotein (Biomedical Technologies, Inc., Stoughton, Mass.), (Ohbayashi, et al.) was 98%. Cells were passaged by trypsinization, and cells in second and third passage were used for all experiments in this example. […] Some cells were pretreated for 1 hour with ICI182780 before treatment with the test agents. After stimulation, the cells were washed with ice-cold PBS and extraction buffer (50 mmol/L β-glycerophosphate, 1.5 mmol/L EGTA, 1 mmol/L dithiothreitol, 100 μmol/L Na3VO4, 10 μg/mL aprotinin, 5 μg/mL pepstatin, […] leupeptin, and 1 mmol/L benzamidine) (all from Sigma), scraped off the plates, and sonicated for 20 seconds in 0.5 mL of extraction buffer. The extracts were collected, the cytosolic fractions were separated by centrifuging the extracts at 100,000×g for 20 minutes at 4° C., and the supernatants were diluted to a concentration of 1 mg protein/mL and stored at -70° C. for mitogen-activated protein kinase (“MAPK”) activity assays. The MAPK activity in the cytosolic extracts was quantified as described by Dubey, R. K., et al., Arterioscler. Thromb. Vasc. Biol. 20:964 (2000), the disclosure of which is incorporated herein by reference.

[3] = tested on: endothelin-1 (ET-1) synthesis in porcine coronary artery endothelial cells (PCAECs); assay: Basal ET-1 release into the medium by PCAECs (ELISA); type: cell-based; conditions: for effect on basal ET secretion: 2 nmol/L, PCAECs incubated 4, 8, 12 and 24 hours
Source text: as §1, §2
To analyze the effects of estradiol and its metabolites on the basal synthesis of ET-1, cells were pretreated with or without the various above-listed agents and with and without ICI182780 for 24 hours and were fed fresh DMEM/F12 supplemented with 0.4%; BSA (Sigma) and the respective treatments. The supernatants were collected after 4, 8, 12, and 24 hours and the ET-1 levels were analyzed.

[4] = angiotensin II 100 nmol/L, 4 hours
[5] = 1 nmol/L, pretreated 24 hours, FCS 2.5%

Molecule: C[C@]12CC[C@@H]3c4cc(O)c(O)cc4CC[C@H]3[C@@H]1CC[C@@H]2O [2-hydroxyestradiol, estra-1,3,5 (10)-triene-2,3,17-triol (17β)]
- inhibition of FCS-induced ET-1 secretion ([1]; FCS 2.5%, 4 hours): 31%
- inhibition of TNFα-induced ET-1 secretion ([1]; TNFα 10 ng/mL, 4 hours): 35%
- inhibition of angiotensin II-induced ET-1 secretion [1, 4]: 33%
- inhibition of thrombin-induced ET-1 secretion ([1]; thrombin 4 U/mL, 4 hours): 40%
- reversal by ICI182780 of the compound's inhibitory effect on FCS-stimulated ET-1 secretion ([1]; FCS 2.5%, 4 hours): not
- effectiveness in inhibiting basal and stimulated ET-1 secretion compared with estradiol [1]: more effective
- inhibition of FCS-induced MAPK activity [2, 5]: 34±4%
- potency in inhibiting FCS-induced MAPK activity compared with estradiol ([2]; pretreated 24 hours, FCS 2.5%): more potent
- effect on basal ET secretion [3]: inhibited

Molecule: C[C@]12CC[C@@H]3c4ccc(O)cc4C[C@@H](CCCCCCCCC[S+]([O-])CCCC(F)(F)C(F)(F)F)[C@H]3[C@@H]1CC[C@@H]2O (some centres unmarked) [ICI182780]
- effect of compound alone on basal or FCS-stimulated ET-1 synthesis ([1]; 50 μmol/L): did not influence

Molecule: TNFα
- induction of ET-1 secretion (percentage increase vs vehicle-treated controls) ([1]; 4 hours): 120±8%

Molecule: CCCCC(=O)O[C@H]1CC[C@H]2[C@@H]3CCc4cc(O)ccc4[C@H]3CC[C@]12C [estradiol valerate]
- effect on FCS-induced ET-1 synthesis ([1]; FCS 2.5%, 4 hours): inhibited
- reversal by ICI182780 of the compound's inhibitory effect on FCS-stimulated ET-1 secretion ([1]; FCS 2.5%, 4 hours): reversed

Molecule: COc1cccc(-c2cc(=O)c3ccccc3o2)c1N [PD98059]
- MAPK activity ([2]; growth-arrested cells, FCS 2.5% for 10 minutes, unstimulated 0.187, PD98059 at 10 μmol/L): 0.7 μmol/min/mg protein

Molecule: C[C@]12CC[C@@H]3c4ccc(OC(=O)c5ccccc5)cc4CC[C@H]3[C@@H]1CC[C@@H]2O [estradiol benzoate]
- effect on FCS-induced ET-1 synthesis ([1]; FCS 2.5%, 4 hours): inhibited
- reversal by ICI182780 of the compound's inhibitory effect on FCS-stimulated ET-1 secretion ([1]; FCS 2.5%, 4 hours): reversed

Molecule: O=c1c(-c2ccc(O)cc2)coc2cc(O)cc(O)c12 [Genistein, genistein]
- concentrations at which inhibitory effects on ET-1 secretion were observed ([1]; FCS 2.5%-stimulated, 4 hours, tested 0.001 to 10 μmol/L): ≥ 1 µmol/L
- reversal by ICI182780 of the compound's inhibitory effect on FCS-stimulated ET-1 secretion ([1]; FCS 2.5%, 4 hours): not reversed

Molecule: C[C@]12CC[C@@H]3c4ccc(O)cc4CC[C@H]3[C@@H]1C[C@@H](O)[C@@H]2O [estriol]
- effect on FCS-induced ET-1 synthesis ([1]; FCS 2.5%, 4 hours): unable to lower ET-1 secretion

Molecule: thrombin
- induction of ET-1 secretion (percentage increase vs vehicle-treated controls) ([1]; 4 hours): 98±5%

Molecule: estrone sulfate
- effect on FCS-induced ET-1 synthesis ([1]; FCS 2.5%, 4 hours): unable to lower ET-1 secretion

Molecule: C[C@]12CC[C@@H]3c4ccc(O)cc4CC[C@H]3[C@@H]1CC[C@@H]2O [estradiol, 17β-estradiol]
- ET-1 secretion induced in response to FCS (percentage increase) in presence of compound ([1]; 1 nmol/L compound, FCS 2.5%, 4 hours, control 138±16%): 82±8%
- ET-1 secretion induced in response to TNFα (percentage increase) in presence of compound ([1]; 1 nmol/L compound, TNFα 10 ng/mL, 4 hours, control 120±8%): 68±5%
- ET-1 secretion induced in response to angiotensin II (percentage increase) in presence of compound ([1]; 1 nmol/L compound, angiotensin II 100 nmol/L, 4 hours, control 116±7%): 73±6%
- ET-1 secretion induced in response to thrombin (percentage increase) in presence of compound ([1]; 1 nmol/L compound, thrombin 4 U/mL, 4 hours, control 98±6%): 53±4%
- reversal by ICI182780 of the compound's inhibitory effect on FCS-stimulated ET-1 secretion ([1]; FCS 2.5%, 4 hours): completely blocked
- inhibition at 0.001 µM ([1]; FCS 2.5%, 4 hours, read-out: inhibition of FCS-induced ET-1 secretion): 22%
- inhibition at 0.001 µM ([1]; TNFα 10 ng/mL, 4 hours, read-out: inhibition of TNFα-induced ET-1 secretion): 26%
- inhibition at 0.001 µM ([1]; angiotensin II 100 nmol/L, 4 hours, read-out: inhibition of angiotensin II-induced ET-1 secretion): 20%
- inhibition at 0.001 µM ([1]; thrombin 4 U/mL, 4 hours, read-out: inhibition of thrombin-induced ET-1 secretion): 24%
- reversal by ICI182780 of the compound's inhibitory effect on FCS-induced MAPK activity ([2]; ICI182780 50 μmol/L pretreatment, compound 10 nmol/L): completely reversed
- inhibition at 0.001 µM ([2]; Sus scrofa, 1 nmol/L, pretreated 24 hours, FCS 2.5%): 19 ± 2.6%
- effect on basal ET secretion [3]: inhibited
- inhibition at 0.002 µM ([3]; Sus scrofa, Endothelial cell, 8 h, read-out: inhibition of basal synthesis of ET-1): 19 ± 2%

Molecule: COc1cc2c(cc1O)CC[C@@H]1[C@@H]2CC[C@]2(C)[C@@H](O)CC[C@@H]12 [2-methoxyestradiol, estra-1,3,5 (10)-triene-2-methoxy-3,17-diol (17β)]
- inhibition of FCS-induced ET-1 secretion ([1]; FCS 2.5%, 4 hours): 44%
- inhibition of TNFα-induced ET-1 secretion ([1]; TNFα 10 ng/mL, 4 hours): 56%
- inhibition of angiotensin II-induced ET-1 secretion [1, 4]: 39%
- inhibition of thrombin-induced ET-1 secretion ([1]; thrombin 4 U/mL, 4 hours): 46%
- reversal by ICI182780 of the compound's inhibitory effect on FCS-stimulated ET-1 secretion ([1]; FCS 2.5%, 4 hours): not
- effectiveness in inhibiting basal and stimulated ET-1 secretion compared with estradiol [1]: more effective
- inhibition of FCS-induced MAPK activity [2, 5]: 46±4.7%
- potency in inhibiting FCS-induced MAPK activity compared with estradiol ([2]; pretreated 24 hours, FCS 2.5%): more potent
- effect on basal ET secretion [3]: inhibited

Molecule: angiotensin II [stimulatory agent for ET-1 secretion]
- induction of ET-1 secretion (percentage increase vs vehicle-treated controls) ([1]; 4 hours): 116±7%

Molecule: C[C@]12CC[C@@H]3c4ccc(O)cc4CC[C@H]3[C@@H]1CC[C@@H]2OC(=O)CCC1CCCC1 [estradiol cypionate]
- effect on FCS-induced ET-1 synthesis ([1]; FCS 2.5%, 4 hours): inhibited
- reversal by ICI182780 of the compound's inhibitory effect on FCS-stimulated ET-1 secretion ([1]; FCS 2.5%, 4 hours): reversed

Molecule: C[C@]12CC[C@@H]3c4ccc(O)cc4CC[C@H]3[C@@H]1CC[C@H]2O [17α-estradiol]
- effect on FCS-induced ET-1 synthesis ([1]; FCS 2.5%, 4 hours): unable to lower ET-1 secretion
